From publication PMC5762315, “Inhibition of polo-like kinase 4 (PLK4): a new therapeutic option for rhabdoid tumors and pediatric medulloblastoma” (Oncotarget, 2017)
Several values for one entry are separate records, joined by “and”; a condition that tells them apart may be missing. Equal entries are not always repeated.

Tests used:
Test in all cases: LanthaScreen Eu Kinase Binding Assay, panel of 486 biochemical kinase assays
various kinases [1] = target: various kinases (Homo sapiens, UniProt Q9H2G2); settings: kinase SLK; LanthaScreen Binding
various kinases [2] = target: various kinases (Homo sapiens, UniProt P45983); settings: MAPK8 (JNK1)
various kinases [3] = target: T1, various kinases (Homo sapiens, UniProt Q9H2K8); settings: kinase TAOK3 (JIK); LanthaScreen Binding
T1 sequence (Q9H2K8 1-898): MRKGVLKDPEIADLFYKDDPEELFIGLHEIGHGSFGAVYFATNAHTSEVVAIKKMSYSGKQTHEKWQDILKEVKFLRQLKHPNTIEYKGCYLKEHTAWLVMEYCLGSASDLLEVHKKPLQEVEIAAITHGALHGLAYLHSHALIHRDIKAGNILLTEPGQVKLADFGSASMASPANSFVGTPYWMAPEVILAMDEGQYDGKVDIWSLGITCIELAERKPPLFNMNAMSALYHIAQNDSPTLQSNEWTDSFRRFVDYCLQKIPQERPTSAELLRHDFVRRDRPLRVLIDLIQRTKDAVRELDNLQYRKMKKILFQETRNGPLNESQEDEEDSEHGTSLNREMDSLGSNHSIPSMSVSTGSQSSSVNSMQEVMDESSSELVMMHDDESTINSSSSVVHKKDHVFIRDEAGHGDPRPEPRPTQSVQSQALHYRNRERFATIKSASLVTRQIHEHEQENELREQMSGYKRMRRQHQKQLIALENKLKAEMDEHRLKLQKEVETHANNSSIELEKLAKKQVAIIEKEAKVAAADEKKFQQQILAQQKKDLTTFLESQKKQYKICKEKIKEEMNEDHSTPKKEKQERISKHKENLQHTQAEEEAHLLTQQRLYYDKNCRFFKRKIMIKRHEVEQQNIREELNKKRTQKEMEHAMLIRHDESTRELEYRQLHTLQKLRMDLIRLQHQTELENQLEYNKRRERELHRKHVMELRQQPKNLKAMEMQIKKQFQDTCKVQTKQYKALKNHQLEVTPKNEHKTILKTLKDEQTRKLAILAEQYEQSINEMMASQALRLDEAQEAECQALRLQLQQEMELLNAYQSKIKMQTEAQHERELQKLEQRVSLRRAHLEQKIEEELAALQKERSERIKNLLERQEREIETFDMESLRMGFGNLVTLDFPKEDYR

various kinases [4] = target: various kinases (Homo sapiens, UniProt O94921); settings: CDK14 (PFTK1)/cyclin Y
various kinases [5] = target: various kinases (Homo sapiens, UniProt Q15208); settings: kinase STK38 (NDR); LanthaScreen Binding
various kinases [6] = target: various kinases (Homo sapiens, UniProt Q02779); settings: MAP3K10 (MLK2)
various kinases [7] = target: various kinases (Homo sapiens, UniProt P10721, V654A); settings: KIT V654A
various kinases [8] = target: T2, various kinases (Homo sapiens, UniProt Q9UEE5); settings: kinase STK17A (DRAK1); LanthaScreen Binding
T2 sequence (Q9UEE5 1-414): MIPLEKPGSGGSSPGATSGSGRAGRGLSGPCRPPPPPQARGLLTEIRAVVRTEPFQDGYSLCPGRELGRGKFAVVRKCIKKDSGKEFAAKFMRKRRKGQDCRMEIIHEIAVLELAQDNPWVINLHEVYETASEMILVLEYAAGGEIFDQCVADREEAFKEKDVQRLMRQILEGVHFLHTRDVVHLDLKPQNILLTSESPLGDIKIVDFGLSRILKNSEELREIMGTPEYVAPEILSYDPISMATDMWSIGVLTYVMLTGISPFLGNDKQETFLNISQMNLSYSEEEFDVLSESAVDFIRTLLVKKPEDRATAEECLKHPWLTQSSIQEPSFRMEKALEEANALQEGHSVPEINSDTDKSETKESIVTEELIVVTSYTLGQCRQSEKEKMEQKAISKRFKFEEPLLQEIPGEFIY

various kinases [9] = target: various kinases (Homo sapiens, UniProt P06241); settings: FYN A
various kinases [10] = target: various kinases (Homo sapiens, UniProt O43353); settings: kinase RIPK2; LanthaScreen Binding
various kinases [11] = target: various kinases (Homo sapiens, UniProt Q14004); settings: CDK13/cyclin K
various kinases [12] = target: various kinases (Homo sapiens, UniProt P15056, V600E); settings: BRAF V599E
various kinases [13] = target: various kinases (Homo sapiens, UniProt Q5TCX8); settings: MLK4
various kinases [14] = target: various kinases (Homo sapiens, UniProt Q92918); settings: MAP4K1 (HPK1)
various kinases [15] = target: various kinases (Homo sapiens, UniProt P30291); settings: kinase WEE1; LanthaScreen Binding
various kinases [16] = target: various kinases (Homo sapiens, UniProt Q8IWQ3); settings: BRSK2
various kinases [17] = target: various kinases (Homo sapiens, UniProt Q08345); settings: DDR1
various kinases [18] = target: various kinases (Homo sapiens, UniProt Q12866, A708S); settings: MERTK (cMER) A708S
various kinases [19] = target: various kinases (Homo sapiens, UniProt P53779); settings: MAPK10 (JNK3)
various kinases [20] = target: various kinases (Homo sapiens, UniProt Q9H093); settings: NUAK2
Sequence of various kinases (Homo sapiens, UniProt Q9H093) (Q9H093 whole entry): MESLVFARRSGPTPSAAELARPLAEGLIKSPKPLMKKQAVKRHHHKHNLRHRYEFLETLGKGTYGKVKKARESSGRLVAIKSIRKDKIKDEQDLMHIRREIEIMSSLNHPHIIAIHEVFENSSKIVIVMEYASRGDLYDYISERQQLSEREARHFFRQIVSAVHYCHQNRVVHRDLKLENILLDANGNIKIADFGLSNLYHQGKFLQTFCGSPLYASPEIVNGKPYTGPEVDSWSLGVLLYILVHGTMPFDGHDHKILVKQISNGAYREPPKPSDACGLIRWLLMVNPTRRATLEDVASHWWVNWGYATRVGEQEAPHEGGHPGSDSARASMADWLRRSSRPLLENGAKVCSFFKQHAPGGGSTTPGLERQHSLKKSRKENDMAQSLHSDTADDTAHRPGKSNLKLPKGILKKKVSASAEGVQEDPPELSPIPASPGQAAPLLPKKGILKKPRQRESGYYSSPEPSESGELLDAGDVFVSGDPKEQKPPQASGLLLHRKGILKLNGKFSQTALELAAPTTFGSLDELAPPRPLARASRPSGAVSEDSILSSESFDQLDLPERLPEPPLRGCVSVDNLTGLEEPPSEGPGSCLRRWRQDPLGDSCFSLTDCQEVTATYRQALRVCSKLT

Sequence of various kinases (Homo sapiens, UniProt Q9H2G2) (Q9H2G2 whole entry): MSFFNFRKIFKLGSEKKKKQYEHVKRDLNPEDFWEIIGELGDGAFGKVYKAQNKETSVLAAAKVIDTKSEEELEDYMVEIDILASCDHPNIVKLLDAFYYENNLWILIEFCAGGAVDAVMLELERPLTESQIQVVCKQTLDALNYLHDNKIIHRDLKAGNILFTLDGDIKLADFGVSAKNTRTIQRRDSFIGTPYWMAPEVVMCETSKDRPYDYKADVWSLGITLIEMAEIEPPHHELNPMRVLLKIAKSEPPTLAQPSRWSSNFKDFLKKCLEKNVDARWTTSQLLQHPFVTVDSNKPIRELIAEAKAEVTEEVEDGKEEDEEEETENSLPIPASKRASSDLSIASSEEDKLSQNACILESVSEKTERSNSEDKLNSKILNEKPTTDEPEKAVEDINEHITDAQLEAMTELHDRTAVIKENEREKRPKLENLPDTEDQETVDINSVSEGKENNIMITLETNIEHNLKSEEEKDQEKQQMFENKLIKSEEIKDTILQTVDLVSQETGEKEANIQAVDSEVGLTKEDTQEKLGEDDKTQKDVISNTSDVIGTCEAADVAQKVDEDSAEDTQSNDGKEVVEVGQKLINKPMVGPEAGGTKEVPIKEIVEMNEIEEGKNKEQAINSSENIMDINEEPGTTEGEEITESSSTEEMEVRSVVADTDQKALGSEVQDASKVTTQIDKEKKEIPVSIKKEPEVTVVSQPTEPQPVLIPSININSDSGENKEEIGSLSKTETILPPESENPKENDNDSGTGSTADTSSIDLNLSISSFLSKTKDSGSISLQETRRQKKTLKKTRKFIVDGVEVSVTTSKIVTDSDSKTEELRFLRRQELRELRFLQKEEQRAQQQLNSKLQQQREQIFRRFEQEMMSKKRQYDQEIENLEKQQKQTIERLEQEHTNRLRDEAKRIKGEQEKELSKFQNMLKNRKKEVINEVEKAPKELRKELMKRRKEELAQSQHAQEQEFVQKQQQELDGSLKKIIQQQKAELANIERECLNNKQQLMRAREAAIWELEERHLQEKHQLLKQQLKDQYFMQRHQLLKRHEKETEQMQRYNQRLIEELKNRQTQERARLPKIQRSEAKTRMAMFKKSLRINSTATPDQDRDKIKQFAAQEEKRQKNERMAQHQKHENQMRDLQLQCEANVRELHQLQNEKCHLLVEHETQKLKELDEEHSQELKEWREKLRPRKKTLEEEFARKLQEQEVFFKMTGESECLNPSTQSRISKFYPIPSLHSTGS
Sequence of various kinases (Homo sapiens, UniProt P30291) (P30291 whole entry): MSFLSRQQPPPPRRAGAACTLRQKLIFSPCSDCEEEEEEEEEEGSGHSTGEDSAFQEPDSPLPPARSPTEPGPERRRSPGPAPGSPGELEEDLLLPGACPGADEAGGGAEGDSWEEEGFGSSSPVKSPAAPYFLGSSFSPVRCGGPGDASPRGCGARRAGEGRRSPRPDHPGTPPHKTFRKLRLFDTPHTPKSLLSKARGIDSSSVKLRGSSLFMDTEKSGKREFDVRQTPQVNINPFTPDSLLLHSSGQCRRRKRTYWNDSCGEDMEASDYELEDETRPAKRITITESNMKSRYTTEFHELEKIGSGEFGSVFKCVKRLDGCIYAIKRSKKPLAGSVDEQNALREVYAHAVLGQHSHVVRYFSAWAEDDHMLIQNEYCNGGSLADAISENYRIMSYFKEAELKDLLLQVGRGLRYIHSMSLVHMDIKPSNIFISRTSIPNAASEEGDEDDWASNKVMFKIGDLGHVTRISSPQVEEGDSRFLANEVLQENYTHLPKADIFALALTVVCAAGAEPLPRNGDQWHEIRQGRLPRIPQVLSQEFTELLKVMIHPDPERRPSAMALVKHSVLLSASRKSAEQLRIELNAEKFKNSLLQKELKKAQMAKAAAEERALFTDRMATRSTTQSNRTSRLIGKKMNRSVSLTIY
Sequence of various kinases (Homo sapiens, UniProt Q15208) (Q15208 whole entry): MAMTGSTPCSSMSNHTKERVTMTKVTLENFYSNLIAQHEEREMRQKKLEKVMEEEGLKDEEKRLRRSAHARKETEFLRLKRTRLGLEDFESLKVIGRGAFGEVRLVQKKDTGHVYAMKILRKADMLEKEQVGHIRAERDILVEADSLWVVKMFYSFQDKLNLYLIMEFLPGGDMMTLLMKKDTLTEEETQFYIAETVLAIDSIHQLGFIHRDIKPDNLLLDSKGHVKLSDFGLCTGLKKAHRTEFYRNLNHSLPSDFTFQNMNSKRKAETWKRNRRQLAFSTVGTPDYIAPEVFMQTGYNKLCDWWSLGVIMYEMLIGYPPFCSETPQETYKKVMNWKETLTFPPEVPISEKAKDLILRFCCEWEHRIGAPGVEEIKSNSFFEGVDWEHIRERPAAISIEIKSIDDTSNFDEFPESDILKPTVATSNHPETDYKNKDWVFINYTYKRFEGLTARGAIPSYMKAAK
Sequence of various kinases (Homo sapiens, UniProt O43353) (O43353 whole entry): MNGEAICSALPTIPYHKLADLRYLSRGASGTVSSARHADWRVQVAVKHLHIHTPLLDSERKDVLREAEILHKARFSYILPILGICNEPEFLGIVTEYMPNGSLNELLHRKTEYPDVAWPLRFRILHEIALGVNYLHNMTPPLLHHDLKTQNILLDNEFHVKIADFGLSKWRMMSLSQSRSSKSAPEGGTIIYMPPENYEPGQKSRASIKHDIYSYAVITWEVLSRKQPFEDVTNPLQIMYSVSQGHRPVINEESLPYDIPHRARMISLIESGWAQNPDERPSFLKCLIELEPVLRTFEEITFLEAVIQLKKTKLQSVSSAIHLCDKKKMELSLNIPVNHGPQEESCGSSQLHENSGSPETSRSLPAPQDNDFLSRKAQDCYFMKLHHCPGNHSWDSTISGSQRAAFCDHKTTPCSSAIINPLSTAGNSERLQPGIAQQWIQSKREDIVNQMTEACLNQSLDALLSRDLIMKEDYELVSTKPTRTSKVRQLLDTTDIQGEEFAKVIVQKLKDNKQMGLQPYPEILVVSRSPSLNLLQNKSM
Sequence of various kinases (Homo sapiens, UniProt Q08345) (Q08345 19-913): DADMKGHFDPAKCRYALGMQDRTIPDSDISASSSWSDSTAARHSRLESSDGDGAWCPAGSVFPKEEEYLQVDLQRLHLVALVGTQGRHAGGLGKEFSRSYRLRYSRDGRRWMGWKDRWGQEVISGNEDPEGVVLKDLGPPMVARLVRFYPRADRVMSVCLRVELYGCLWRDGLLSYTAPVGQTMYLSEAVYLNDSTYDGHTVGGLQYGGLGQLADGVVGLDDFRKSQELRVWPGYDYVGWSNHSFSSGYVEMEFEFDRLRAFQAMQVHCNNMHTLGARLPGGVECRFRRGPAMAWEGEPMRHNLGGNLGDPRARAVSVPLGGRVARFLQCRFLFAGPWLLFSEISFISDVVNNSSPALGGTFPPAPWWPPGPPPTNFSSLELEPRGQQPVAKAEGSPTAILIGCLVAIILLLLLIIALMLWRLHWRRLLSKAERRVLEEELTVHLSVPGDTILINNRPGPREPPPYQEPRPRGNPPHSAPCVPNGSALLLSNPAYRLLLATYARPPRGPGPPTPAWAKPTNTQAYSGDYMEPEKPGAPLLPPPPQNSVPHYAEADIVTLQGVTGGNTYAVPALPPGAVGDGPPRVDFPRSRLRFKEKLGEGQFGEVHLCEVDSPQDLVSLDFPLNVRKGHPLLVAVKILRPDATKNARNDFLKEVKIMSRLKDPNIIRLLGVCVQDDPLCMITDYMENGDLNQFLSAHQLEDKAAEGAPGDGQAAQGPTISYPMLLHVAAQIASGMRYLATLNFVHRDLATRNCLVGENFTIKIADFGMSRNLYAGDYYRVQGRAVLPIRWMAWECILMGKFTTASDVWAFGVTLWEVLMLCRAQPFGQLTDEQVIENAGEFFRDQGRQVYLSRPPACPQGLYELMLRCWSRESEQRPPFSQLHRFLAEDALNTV
Sequence of various kinases (Homo sapiens, UniProt O94921) (O94921 whole entry): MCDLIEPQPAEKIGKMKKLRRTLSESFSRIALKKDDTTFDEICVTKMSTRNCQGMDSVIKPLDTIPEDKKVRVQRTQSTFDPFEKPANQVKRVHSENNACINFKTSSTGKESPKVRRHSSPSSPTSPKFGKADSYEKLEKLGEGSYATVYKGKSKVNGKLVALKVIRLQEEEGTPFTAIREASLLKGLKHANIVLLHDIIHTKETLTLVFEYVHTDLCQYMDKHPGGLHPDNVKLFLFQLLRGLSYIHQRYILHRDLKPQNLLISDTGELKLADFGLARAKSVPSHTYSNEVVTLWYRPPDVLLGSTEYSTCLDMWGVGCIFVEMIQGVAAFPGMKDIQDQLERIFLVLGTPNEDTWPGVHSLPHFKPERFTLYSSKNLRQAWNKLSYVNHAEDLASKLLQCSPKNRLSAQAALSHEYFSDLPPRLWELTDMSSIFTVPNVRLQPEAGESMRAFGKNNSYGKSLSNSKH

COc1ccc2c(c1)[C@]1(C[C@H]1c1ccc3c(/C=C/c4ccc(CN5C[C@@H](C)O[C@@H](C)C5)cc4)n[nH]c3c1)C(=O)N2 [CFI-400945]
% Inhibition Average (various kinases [1]): 5%
% Inhibition Duplicate #1 (various kinases [1]): 4%
% Inhibition Duplicate #2 (various kinases [1]): 6%
% Inhibition (various kinases [2]): 0% and -1%
% Inhibition Average (various kinases [3]): 10%
% Inhibition Duplicate #1 (various kinases [3]): 14%
% Inhibition Duplicate #2 (various kinases [3]): 6%
% Inhibition (various kinases [4]): -4% and 2%
% Inhibition Average (various kinases [5]): 0%
% Inhibition Duplicate #1 (various kinases [5]): -5%
% Inhibition Duplicate #2 (various kinases [5]): 4%
% Inhibition (various kinases [6]): -2% and 1%
% Inhibition (various kinases [7]): 6%
% Inhibition Average (various kinases [8]): 19%
% Inhibition Duplicate #1 (various kinases [8]): 24%
% Inhibition Duplicate #2 (various kinases [8]): 13%
% Inhibition (various kinases [9]): 8%
% Inhibition Average (various kinases [10]): 3%
% Inhibition Duplicate #1 (various kinases [10]): 3%
% Inhibition Duplicate #2 (various kinases [10]): 3%
% Inhibition (various kinases [11]): -6% and 0%
% Inhibition (various kinases [12]): 9% and 7%
% Inhibition (various kinases [13]): 8% and 4%
% Inhibition (various kinases [14]): 45% and 35%
% Inhibition Average (various kinases [15]): -5%
% Inhibition Duplicate #1 (various kinases [15]): -7%
% Inhibition Duplicate #2 (various kinases [15]): -2%
% Inhibition (various kinases [16]): -4% and -7%
% Inhibition (various kinases [17]): 46% and 45%
% Inhibition (various kinases [18]): 7% and 2%
% Inhibition (various kinases [19]): 3% and -3%
% Inhibition (various kinases [20]): 44% and 36%
